Assays:
[1] = system: ATXN3/Q75 aggregation in 293 ATXN3/Q75-GFP cells; assay: ATXN3/Q75 aggregation assay on 293 cell model; assay type: cell-based, human; conditions: for ATXN3/Q75 aggregation as compared to untreated cells: 293 ATXN3/Q75-GFP cells, doxycycline and oxaliplatin 6 days; for IC50 cytotoxicity/effective dose ratio: effective dose = reduced the ATXN3/Q75 aggregation to 85% or lower
Experimental: (§1) The cloned pcDNA5/FRT/TO-ATXN3/Q14 and Q75 plasmids were used to generate the isogenic ATXN3/Q14˜75 cell lines by targeting insertion into Flp-In™-293 cells. These cell lines were grown in medium containing 5 μg/mL blasticidin and 100 μg/mL hygromycin (InvivoGen). In addition, human SH-SYSY-derived Flp-In host cell line was constructed as described, and the SH-SYSY host cells were used to generate isogenic ATXN3/Q14˜75 lines and maintained as described above. ATXN3/Q75 Aggregation Assay
Then, doxycycline (10 μg/mL, BD) was added to the medium in each well to induce ATXN3/Q75-GFP expression for 6 days.
In the present example, the influences of the P. lactiflora extract and paeoniflorin in the ATXN3/Q75-GFP cells were respectively examined.

[2] = system: ATXN3/Q75 aggregation in SH-SY5Y ATXN3/Q75-GFP cells; assay: ATXN3/Q75 aggregation assay on SH-SY5Y cell model; assay type: cell-based, human; conditions: paeoniflorin 100 nM; retinoic acid differentiated SH-SY5Y ATXN3/Q75-GFP cells, 6 days
Experimental: as §1

in vitro [3] = conditions: human
Experimental: (§2) Cells were cultivated at 37° C. incubator containing 5% CO2 and cell proliferation was measured based upon the reduction of the tetrazolium salt, 3,[4,5-dimethylthiazol-2-yl]-2,5-diphenyl-tetrazolium bromide (MTT). Cells were plated into 48-well (5×10^4/well) dishes, grown for 20 hours and treated with different concentrations of the P. lactiflora extract (5˜30 mg/mL) or pure compound (100 nM˜1 mM). After one day, 20 μL MTT (5 mg/mL in PBS, Sigma) was added to cells and incubated for 2 hours. The absorbance of the purple formazan dye was measured at 570 nm by a Bio-Tek μQuant Universal Microplate Spectrophotometer.

in vitro [4] = conditions: human; remark: listed apart in the source
Experimental: as §2

Experimental for HEK-293 cells: as §2
Experimental for SH-SY5Y cells: as §2

Row | Structure (SMILES) | ATXN3/Q75 aggregation as compared to untreated cells ([1]; at 100 nM) | ATXN3/Q75 aggregation as compared to untreated cells ([1]; at 5 μM) | IC50 cytotoxicity/effective dose ratio [1] | IC50 (HEK-293 cells) | IC50 (SH-SY5Y cells) | aggregation reduction in ATXN3/Q75 expressed neuronal cells [2] | IC50 at 24 h (in vitro [3]) | IC50 at 24 h (in vitro [4])
1 | O=C(CCCCCCC(=O)Nc1ccccc1)NO [SAHA, suberoylanilide hydroxamic acid, reference compound] | 85% | – | – | – | – | – | – | –
2 | C[C@]12C[C@@H](O)[C@@H]3C[C@@]1(O[C@@H]1O[C@H](CO)[C@@H](O)[C@H](O)[C@H]1O)[C@@]3(COC(=O)c1ccccc1)C(=O)O2 [albiflorin] | – | 78% | > 200 | > 1000 µM | > 1000 µM | – | – | –
3 | C[C@@]12C[C@@]3(O)O[C@@H](O1)[C@]1(COC(=O)c4ccccc4)[C@H]3C[C@@]12O[C@@H]1O[C@H](CO)[C@@H](O)[C@H](O)[C@H]1O [paeoniflorin] | 73% | – | > 10000 | – | – | 21% | > 1000 µM | > 1000 µM

Reference: patent US20140249095A1, “Method for Inhibiting Spinocerebellar Ataxia” (National Normal University, priority 2013, published 2014)
